Reference: DBAASP
In brackets after ≈: the same amount, converted by molar mass. One block for each compound: values may come before it.

How the values were obtained:
Experiment in all cases: ≥ marks a high value that may be exact or a test limit, other limits are often not marked, values filed in µg/mL are converted to µM
[1] = test system: Candida tropicalis ATCC 750
[2] = test system: Candida glabrata ATCC 2001
[3] = test system: Staphylococcus aureus ATCC 29213
[4] = test system: Escherichia coli ATCC 25922
[5] = test system: Candida parapsilosis ATCC 90018
[6] = test system: Candida albicans ATCC 10231
[7] = test system: Pseudomonas aeruginosa ATCC 27853
Candida krusei ATCC 6258 = test system: Candida krusei ATCC 6258
Yersinia enterocolitica = test system: Yersinia enterocolitica
Salmonella sp. = test system: Salmonella sp.
Escherichia coli = test system: Escherichia coli
[8] = test system: Salmonella enterica subsp. enterica serovar Enteritidis
[9] = test system: Cryptococcus neoformans ATCC 32264
[10] = test system: Staphylococcus aureus ATCC 43300
[11] = test system: Staphylococcus aureus NBRC 13276
[12] = test system: Escherichia coli NBRC 3972
[13] = test system: Bacillus subtilis NBRC 3009
Staphylococcus aureus MR = test system: Staphylococcus aureus MR
Candida albicans = test system: Candida albicans
[14] = test system: Staphylococcus aureus ATCC 49476
[15] = test system: Acinetobacter baumannii ATCC 7978
[16] = test system: Staphylococcus aureus ATCC 29231
[17] = test system: Klebsiella aerogenes ATCC 13048
[18] = test system: Staphylococcus aureus MW2
[19] = test system: Bifidobacterium longum subsp. infantis
Staphylococcus aureus = test system: Staphylococcus aureus
[20] = test system: Escherichia coli DH5alpha
[21] = test system: Zymomonas mobilis ATCC 10988
Candida parapsilosis = test system: Candida parapsilosis
Bacillus subtilis DELTA = test system: Bacillus subtilis DELTA
[22] = test system: Pseudomonas aeruginosa PAO1
[23] = test system: Staphylococcus aureus KCTC 3881
[24] = test system: Shigella dysenteriae ATCC 9752
[25] = test system: Escherichia coli KCTC 2433
[26] = test system: Micrococcus luteus ATCC 4698
[27] = test system: Staphylococcus epidermidis ATCC 12228
[28] = test system: Staphylococcus aureus ATCC 25923
[29] = test system: Pseudomonas aeruginosa ATCC 9027
[30] = test system: Candida albicans ATCC 36232
[31] = test system: Proteus mirabilis ATCC 25933
[32] = test system: Klebsiella pneumoniae ATCC 10031
[33] = test system: Bacillus subtilis ATCC 6633

SMILES: CC[C@H](C)[C@H](NC(=O)[C@H](C)NC(=O)[C@H](CO)NC(=O)[C@@H](NC(=O)[C@H](CC(C)C)NC(=O)CNC(=O)CNC(=O)[C@@H](NC(=O)[C@H](CC(C)C)NC(=O)[C@H](CO)NC(=O)[C@@H]1CCCN1C(=O)[C@H](CC(C)C)NC(=O)[C@H](Cc1ccccc1)NC(=O)[C@H](Cc1ccccc1)NC(=O)[C@@H](N)Cc1ccccc1)[C@@H](C)CC)C(C)C)C(=O)N[C@@H](CCCCN)C(N)=O [FFFLPSLIGGLVSAIK]
MIC [11]: ≥ 35.4 µM
MIC [12]: ≥ 100 µM
MIC [13]: 1.8 µM (≈ 3.08 µg/mL)

SMILES: CC[C@H](C)[C@H](NC(=O)[C@H](C)NC(=O)[C@H](CCCCN)NC(=O)CNC(=O)[C@H](C)NC(=O)[C@H](CO)NC(=O)[C@H](Cc1ccccc1)NC(=O)[C@H](CC(C)C)NC(=O)CNC(=O)CNC(=O)[C@@H](NC(=O)[C@@H](NC(=O)[C@H](Cc1cnc[nH]1)NC(=O)[C@H](Cc1cnc[nH]1)NC(=O)[C@@H](NC(=O)[C@@H](N)Cc1ccccc1)[C@@H](C)CC)[C@@H](C)CC)[C@@H](C)CC)C(=O)N[C@@H](Cc1cnc[nH]1)C(=O)N[C@@H](CO)C(=O)N[C@@H](CC(C)C)C(=O)N[C@H](C(=O)N[C@@H](Cc1cnc[nH]1)C(=O)N[C@@H](CCCN=C(N)N)C(=O)N[C@@H](CCCN=C(N)N)C(=O)N[C@@H](CCCN=C(N)N)C(=O)N[C@@H](CCCN=C(N)N)C(=O)O)[C@@H](C)CC [FIHHIIGGLFSAGKAIHSLIHRRRR]
MIC (Staphylococcus aureus MR): 11.1 µM (≈ 32 µg/mL)
MIC [7]: 88.5 µM (≈ 256 µg/mL)
MIC (Candida albicans): 88.5 µM (≈ 256 µg/mL)
MIC [14]: 11.1 µM (≈ 32 µg/mL)

SMILES: CC[C@H](C)[C@H](NC(=O)[C@H](CCCCN)NC(=O)[C@H](Cc1c[nH]c2ccccc12)NC(=O)[C@@H](N)CC(C)C)C(=O)NCC(=O)N[C@@H](CCCCN)C(=O)N[C@@H](CCCCN)C(=O)N[C@H](C(=O)N[C@@H](Cc1c[nH]c2ccccc12)C(=O)N[C@@H](CCCN=C(N)N)C(=O)N[C@H](C(=O)NCC(=O)O)C(C)C)[C@@H](C)CC [LWKIGKKIWRVG]
MIC [15]: ≥ 86.3 µM
MIC [16]: ≥ 86.3 µM
MIC [17]: ≥ 86.3 µM
MIC [18]: ≥ 86.3 µM

SMILES: CC[C@H](C)[C@H](NC(=O)[C@H](CCCN=C(N)N)NC(=O)[C@H](CCCCN)NC(=O)[C@H](Cc1ccccc1)NC(C)=O)C(=O)N[C@H](C(=O)N[C@@H](CCC(N)=O)C(=O)N[C@H](C(=O)N[C@H](C(=O)N[C@@H](CCCCN)C(=O)N[C@@H](CCCCN)C(=O)N[C@@H](Cc1ccccc1)C(=O)N[C@@H](CC(C)C)C(=O)N[C@@H](CCCN=C(N)N)C(N)=O)[C@@H](C)CC)[C@@H](C)CC)C(C)C [FKRIVQIIKKFLR]
MIC [20]: 29.6 µM (≈ 51.2 µg/mL)
MIC [21]: 2.96 µM (≈ 5.12 µg/mL)
MIC (Candida parapsilosis): 17.8 µM (≈ 30.7 µg/mL)
MIC (Bacillus subtilis DELTA): 11.8 µM (≈ 20.5 µg/mL)
MIC [22]: 1.78 µM (≈ 3.07 µg/mL)

The next lines start with the values.

MIC [1]: 31.2 µM (≈ 45.1 µg/mL)
MIC [2]: ≥ 125 µM
MIC [3]: 8 µM (≈ 11.6 µg/mL)
MIC [4]: 62.5 µM (≈ 90.3 µg/mL)
MIC [5]: ≥ 125 µM
MIC [6]: 31.2 µM (≈ 45.1 µg/mL)
MIC [7]: 31.2 µM (≈ 45.1 µg/mL)
MIC (Candida krusei ATCC 6258): ≥ 62.5 µM
SMILES: CC[C@H](C)[C@H](NC(=O)CN)C(=O)N[C@@H](CC(C)C)C(=O)N[C@@H](CC(=O)O)C(=O)N[C@H](C(=O)N[C@@H](CC(C)C)C(=O)N[C@@H](CC(N)=O)C(=O)N[C@@H](CCCCN)C(=O)N[C@H](C(=O)N[C@@H](CO)C(=O)N[C@@H](CC(N)=O)C(=O)N[C@@H](CC(C)C)C(=O)N[C@@H](Cc1ccccc1)C(N)=O)C(C)C)[C@@H](C)CC [GILDILNKVSNLF]

MIC (Yersinia enterocolitica): 17.2 µM (≈ 25 µg/mL)
MIC (Salmonella sp.): 17.2 µM (≈ 25 µg/mL)
MIC [3]: 34.3 µM (≈ 50 µg/mL)
MIC (Escherichia coli): 8.58 µM (≈ 12.5 µg/mL)
MIC [8]: 8.58 µM (≈ 12.5 µg/mL)
MIC [4]: 17.2 µM (≈ 25 µg/mL)
MIC [9]: 12.5 µM (≈ 18.2 µg/mL)
MIC [6]: 50 µM (≈ 72.8 µg/mL)
MIC [10]: 17.2 µM (≈ 25 µg/mL)
SMILES: NC(=O)CC[C@H](NC(=O)[C@H](Cc1c[nH]c2ccccc12)NC(=O)[C@H](Cc1c[nH]c2ccccc12)NC(=O)[C@H](CCCN=C(N)N)NC(=O)[C@H](CCCN=C(N)N)NC(=O)[C@H](Cc1c[nH]c2ccccc12)NC(=O)[C@H](CCC(N)=O)NC(=O)[C@@H](N)CCCN=C(N)N)C(=O)N[C@@H](CCCN=C(N)N)C(N)=O [RQWRRWWQR]

MIC (Escherichia coli): > 1180 µM
MIC [19]: ≥ 1180 µM
MIC (Staphylococcus aureus): > 1180 µM
SMILES: CC[C@H](C)[C@H](NC(=O)[C@H](CCC(N)=O)NC(=O)[C@H](Cc1cnc[nH]1)NC(=O)[C@@H](NC(=O)[C@@H]1CCCN1C(=O)[C@H](CC(N)=O)NC(=O)[C@H](CC(C)C)NC(=O)[C@@H](N)CC(C)C)[C@@H](C)O)C(=O)N[C@@H](Cc1ccc(O)cc1)C(=O)N1CCC[C@H]1C(=O)N[C@H](C(=O)N[C@H](C(=O)N[C@@H](CCC(N)=O)C(=O)N1CCC[C@H]1C(=O)N[C@@H](CC(C)C)C(=O)N[C@@H](C)C(=O)N1CCC[C@H]1C(=O)N[C@H](C(=O)N[C@@H](Cc1cnc[nH]1)C(=O)N[C@@H](CC(N)=O)C(=O)N1CCC[C@H]1C(=O)N[C@H](C(=O)N[C@@H](CO)C(=O)O)[C@@H](C)CC)C(C)C)[C@@H](C)O)C(C)C [LLNPTHQIYPVTQPLAPVHNPIS]

MIC [23]: 6.8 µM (≈ 25 µg/mL)
MIC [24]: 13.6 µM (≈ 50 µg/mL)
MIC [4]: 15 µM (≈ 55.1 µg/mL)
MIC [25]: 16.3 µM (≈ 60 µg/mL)
MIC [26]: 1.7 µM (≈ 6.25 µg/mL)
MIC [27]: 13.6 µM (≈ 50 µg/mL)
MIC [28]: 30 µM (≈ 110 µg/mL)
MIC [29]: > 27.2 µM
MIC [30]: 13.6 µM (≈ 50 µg/mL)
MIC [31]: 27.2 µM (≈ 99.9 µg/mL)
MIC [32]: 13.6 µM (≈ 50 µg/mL)
MIC [33]: 13.6 µM (≈ 50 µg/mL)
SMILES: CC[C@H](C)[C@@H]1NC(=O)[C@H](CCCCN)NC(=O)[C@@H](NC(=O)[C@H](CCCCN)NC(=O)[C@H](CC(C)C)NC(=O)[C@H](CCC(N)=O)NC(=O)[C@H](CCC(=O)O)NC(=O)[C@H](CC(C)C)NC(=O)[C@H](CC(C)C)NC(=O)[C@H](CO)NC(=O)CNC(=O)CNC(=O)[C@@H](NC(=O)[C@H](CC(N)=O)NC(=O)[C@H](CCCCN)NC(=O)[C@H](C)NC(=O)[C@@H](NC(=O)[C@H](CC(N)=O)NC(=O)[C@H](CCCCN)NC(=O)CNC(=O)[C@@H](NC(=O)[C@H](C)NC(=O)[C@H](CCCCN)NC(=O)[C@H](CC(C)C)NC(=O)[C@@H](NC(=O)CNC(=O)[C@@H](NC(=O)[C@@H](NC(=O)[C@@H](NC(=O)[C@H](CO)NC(=O)[C@H](Cc2ccccc2)NC(=O)[C@H](CC(C)C)NC(=O)CN)C(C)C)C(C)C)[C@@H](C)O)C(C)C)C(C)C)C(C)C)C(C)C)CSSC[C@@H](C(=O)O)NC(=O)CNC(=O)CNC(=O)[C@H](CO)NC1=O [GLFSVVTGVLKAVGKNVAKNVGGSLLEQLKCKISGGC]
